# According to patent publication US20220025061A1, “COMBINATION THERAPIES FOR TREATING DISEASE USING AN INNATE IMMUNITY MODIFIER AND AN OX40 AGONIST” (BioXcel Therapeutics, Inc., priority 2018, published 2022):
# Assays:
# [1] = test system: MC38 cells; assay: MC38 mouse model of colon adenocarcinoma: tumor volume and survival; format: in vivo; settings: MC38 tumor-bearing C57BL/6 mice
# Experimental: Animals: Six to ten week-old female C57BL/6 mice were used in the studies as supplied by Beijing Vital River Laboratory Animal Technology Co., Ltd. Mice received food and water ad libitum. All animals were maintained in a controlled environment with 20-26° C. temperature, 40-70% humidity, and a light/dark cycle of 12 hours each. Up to 5 mice were kept in each cage. The study protocol and procedures involving the care and use of animals were reviewed and approved by the Institutional Animal Care and Use Committee (IACUC) to ensure compliance with the regulations of the Association for Assessment and Accreditation of Laboratory Animal Care (AAALAC).
# Reagents and Antibodies: Anti-mouse PD-1 antibody (BioXcell; Lot No./Cat. No./clone: 665418F1/BP0146/RMP1-14) was supplied at a concentration of 7.83 mg/mL and maintained at 4° C. […]
# Tumor volumes were measured on Day 10, Day 14, Day 17, Day 21, Day 23, Day 25, Day 28, Day 30, Day 32, Day 35, Day 37, Day 39, Day 42, Day 44, Day 46, Day 49 and Day 51 in two dimensions using a caliper, and the volume was expressed in mm^3 using the formula: V=0.5 a×b^2 where a and b are the length and width of the tumor, respectively.
# Statistical Analysis: Data related to tumor volume are presented as mean and the standard error of the mean (SEM). […] Percentage tumor reduction was assessed on Day 23 by using the below formula: […]
# [2] = test system: pro-inflammatory cytokines and chemokines, including IL-18; assay: Cytokines and chemokines in the serum of treated animals; format: in vivo, mice; settings: serum of animals treated with talabostat mesylate alone; data not shown
# Experimental: Various cytokines and chemokines in the serum of animals treated with talabostat mesylate alone was also evaluated. […] IL-18 bridges the innate and adaptive immune systems through induction of IFNγ and OX40 (CD134) signaling pathway (Maxwell et al., Journal of Immunology, 2006, 177:234).
substance,measurement,setting,value
talabostat mesylate,median survival,"[1]; same dosing as Table 4, vehicle control median survival 30 days",35 days
same,% Tumor Reduction compared to vehicle control on Day 23,"[1]; talabostat mesylate 20 μg/mouse p.o. QD, anti-OX40 Ab 10 mg/kg i.p. twice weekly, anti-PD-1 Ab 5 mg/kg i.p. twice weekly, treatment from Day 11, Day 23",8.16%
same,"pro-inflammatory cytokines and chemokines in serum, including IL-18",[2],stimulated
